{
  "source": "patent US20220096592A1",
  "about": "“PIC1 VARIANTS WITH IMPROVED SOLUBILITY AND METHODS OF USING THE SAME” (priority 2019, published 2022)",
  "key": {"[1]": {"tested_on": "purified human neutrophils", "assay": "NETosis assay (immune complex activated serum and H2O2; PicoGreen free DNA, fluorescence microscopy)", "type": "cell-based", "settings": "neutrophils stimulated with immune complexes, FIG. 5B third row", "procedure": "NETosis assays with immune complexes were performed as previously described. Briefly, normal human serum was stimulated with ovalbumin-antiovalbumin immune complexes in GVBS^++ for 30 minutes at 37° C. This mixture along with 0.05% H2O2 was then added to purified human neutrophils resuspended in RPMI with or without sarcosine variants (2 mM), allowing NETosis to occur. Quantitation of free DNA released from the neutrophils was performed using PicoGreen. Slides were stained with DAPI (Southern Biotech, Birmingham, Ala.). The following antibodies were used to visualize formation of NETs: • (i) mouse anti-elastase (Invitrogen, Carlsbad, Calif.) as a primary antibody with the secondary goat anti-mouse antibody Alexa Fluor 568 (Novus Biologicals, Centennial, Colo.) and • (ii) rabbit anti-histone H3 (Abcam, Cambridge Mass.) with goat anti-rabbit antibody Alexa Fluor 488 (Novus Biologicals). Fluorescence microscopy using an Olympus BX53 microscope was performed to visualize NETs.\nThe peptide variants were tested for inhibition of NETosis. In this assay, purified human neutrophils were stimulated with normal human serum activated with ovalbumin-antiovalbumin immune complexes and hydrogen peroxide. Free DNA expressed from the neutrophils was then measured in a PicoGreen assay. […] Direct visualization of neutrophil extracellular trap (NET) formation by fluorescence microscopy was used to confirm the above NETosis results with the 18 variant. Human neutrophils were purified and stimulated on glass slides then stained with DAPI to visualize DNA and probed with anti-neutrophil elastase (αNE) and anti-histone H3 (αhistone), as previously described. […] Fluorescence microscopy visualization of NETs confirmed the findings seen for quantitative measurements of free DNA."}, "[2]": {"tested_on": "Wistar rat sera complement-mediated killing of human platelets", "assay": "viability of human platelets in Wistar rat sera (Presto Blue)", "type": "cell-based", "settings": "increasing concentrations, vs platelets in normal rat sera, P<0.017, FIG. 7C", "procedure": "For experiments using rat sera, purified platelets were incubated with 5% Wistar rat sera at different time points (5 min, 20 min and 60 min) in a 37° C. bath. Thereafter, GVBS^−− was added to the mixture and this was spun at 500 g for 5 min at 22° C. After resuspending with 250 ul of PBS, PrestoBlue was added to the cells at a 1:10 dilution and incubated in a 37° C. water bath for 30 min. The cells were then plated and read on a microplate reader at 530 nm. With the addition of PIC1 to sera, there was a preincubation time of 5 minutes before addition of platelets.\nIn order to evaluate the extent to which rat sera killing of human platelets is mediated by the classical pathway of complement, we utilized PA-dPEG24."}, "[3]": {"tested_on": "complement-mediated hemolysis of the patient's erythrocytes", "assay": "hemolytic complement assay with plasma and erythrocytes of a DHTR patient", "type": "cell-based, human", "settings": "complement permissive buffer GVBS++, increasing concentrations, FIG. 13; listed as PIC1", "procedure": "Discarded de-identified blood was obtained from routine medical management blood draws from the patient prior to treatment with eculizumab. […] Complement permissive GVBS^++ buffer is veronal-buffered saline with 0.1% gelatin, 0.15 mM CaCl2, and 1 mM MgCl2 [11]. Complement inhibitory buffer GVBS^−− is a veronal-buffered saline with 0.1% gelatin and 10 mM EDTA. Approximately 5×10^7 washed erythrocytes were incubated with 20% plasma in a reaction volume of 0.15 ml for 1 hour at 37° C.\nErythrocytes were sedimented by centrifugation at 1,500×g for 5 minutes and the supernatant was then recovered. The supernatant was measured on a Bio Tek Synergy HT plate reader spectrophotometer for absorption at 412 nm. Hemolysis was measured by quantitation of free hemoglobin on the spectrophotometer at 412 nm."}, "[4]": {"tested_on": "C3 activation on the platelet surface", "assay": "iC3b ELISA of antibody-sensitized human platelets in normal human serum", "type": "cell-based", "procedure": "(§1) For experiments sensitizing platelets with human anti-platelet antibody, purified platelets were treated with 4% ITP sera for 15 minutes at 30° C. before adding 2% normal human complement sufficient sera and incubating for 30 minutes at 37° C. For samples containing PIC1, sera and PIC1 were pre-incubated for 5 minutes before combining with sensitized platelets. Samples were then spun and supernatant was removed for C5a analysis by ELISA. A C5a ELISA kit (R&D Systems) was used per manufacturer's instructions. The cells were washed once with GVBS^−− and once with water to lyse the platelets. The remaining cell pellet was treated with 25 mM methylamine for 1 hour at 37° C., spun, and the supernatant was analyzed for iC3b by ELISA. The ELISA for iC3b was performed as previously described, utilizing a goat anti-human C3 antibody (Complement Technology, Tyler, Tex.) for capture, a mouse anti-human iC3b antibody (Quidel, San Diego, Calif.) for probing, and a goat anti-mouse HRP (Sigma-Aldrich, St Louis, Mo.) for detection.\nHuman platelets were incubated with sensitizing antibody, NHS, or both. […] Complement attack of the platelets and cell viability were assayed. C3 is the central component of the complement activation cascades. The C3 fragment iC3b is an opsonin that contributes to phagocytosis. […]"}, "human platelets": {"tested_on": "human platelets", "assay": "viability of antibody-sensitized human platelets in normal human serum (Presto Blue)", "type": "cell-based", "procedure": "For in vitro experiments, platelets were stained with PrestoBlue Cell Viability Reagent as per manufacturer's recommendations. For in vivo experiments, platelets were stained with PKH26 Red Fluorescent Cell Dye as per manufacturer's recommendations.\nas §1\nCell viability of the platelets was measured by utilizing the vital dye, Presto Blue. […] These effects can be largely reversed in the presence of a classical complement pathway inhibitor."}, "complement activation": {"tested_on": "complement activation", "settings": "administered intravascularly into rats, by 30 seconds; cited from earlier work"}},
  "note": "“Also recorded” adds a separate entry of the source.",
  "data": [
    {"substance": "H2N-IALILEPICCQERAA-dPEG24 (H-IALILEPICCQERAA-dPEG24; cysteine pairing not given here) [PA-dPEG24, 15-amino acid PEGylated peptide, 24 PEG moieties at the C-terminus]", "values": [
      {"measurement": "NET formation by fluorescence microscopy", "setting": "[1]", "value": "dramatic reduction in NETs"},
      {"measurement": "viability of human platelets in rat sera", "setting": "[2]", "value": "dose-dependent improvement in platelet viability; also recorded: improved survival for human platelets in rat sera for all doses tested compared to control"},
      {"measurement": "hemolysis of patient erythrocytes by patient plasma", "setting": "[3]", "value": "statistically significant dose-dependent decrease of hemolysis; also recorded: inhibited hemolysis to the background signal; also recorded: completely blocked at higher doses"},
      {"measurement": "iC3b bound to platelets", "setting": "[4]; 0.8 mM", "value": "level similar to that of the background level measured for sensitizing antibody alone"},
      {"measurement": "iC3b opsonization of platelets, dose response", "setting": "[4]; sensitizing antibody and NHS, increasing concentrations, FIG. 6A", "value": "decreased iC3b opsonization of the platelets in a dose-dependent manner"},
      {"measurement": "increase in platelet viability, in words", "setting": "human platelets; 1.5 mM, P=0.031", "value": "Significant increases in platelet viability"},
      {"measurement": "increase in platelet viability", "setting": "human platelets; 3.0 mM, P=0.003", "value": 53, "unit": "%"},
      {"measurement": "platelet viability, dose response", "setting": "human platelets; sensitizing antibody and NHS, increasing concentrations, FIG. 6C", "value": "Platelet viability dose-dependently increased"},
      {"measurement": "systemic inhibition of complement activation", "setting": "complement activation", "value": "> 90", "unit": "%"}
    ]}
  ]
}
